Literature values in patent US4808590A (priority 1988, dated 1989).

Conditions: British Patent Specification Nos. 1,078,049 and 932,875; cited from earlier work

In the case of `C=C1C[C@](OC)([C@H](O)C(=O)N[C@@H](OC)[C@@H]2C[C@@H](O)C(C)(C)[C@@H](C[C@@H](COC)OC)O2)O[C@H](C)[C@@H]1C` [Pederin], the antimitotic activity is given as “shows antimitotic activity”.
